According to patent US12399167B2 (priority 2019, dated 2025):
In brackets after ≈: the same amount, converted by molar mass. Several values for one entry are separate records, joined by “and”; a condition that tells them apart may be missing. Equal entries are not always repeated. Where two headings read alike, the source gives them in different places.

Key:
[1] = test system: zebrafish embryos and larvae (AB strain); conditions: for NH: Number of health fish: of 60 embryos
Protocol: Toxicant exposure of the embryos: transferring healthy zebrafish embryos laid within 4 hours with droppers into 24 well plates which serve as embryo incubation containers, adding one embryo and 2 mL of the test drug liquid into each well, setting four replicates at a time for each concentration, using a total of 4×15 embryos per concentration; then, placing the 24 well plates into an incubator at a temperature of 26±1° C., allowing incubation under a condition of 14 h light: 10 h dark, recording the death number and the incubation time of the embryos every day, and replacing the test drug liquids once every two days during this test stage. Each concentration consumes a total of 60 embryos, and thus multiple 24 well plates are used during the test.
Selection of a test organism: zebrafish is selected as the test organism, the zebrafish is AB strain and embryos used in the test are propagated and obtained by the following methods: before the test, zebrafish broodstock is reared in water at a temperature of 26±1° C., the ratio of light time to dark time is 14 h:10 h, and when it is lighted, it should be naturally illuminated in a 4.8 m×3.0 m room, plus four 40 W fluorescent lamps, and the feeding lasts at least 2 weeks in an environment which is oxygenated by aeration, the zebrafish broodstock is fed once a day during pre-cultivation, and feces and food residues are removed in time. The zebrafish is purchased from the Institute of Hydrobiology of Chinese Academy of Science. The zebrafish has the advantages of short growth cycle, strong reproductive ability, transparent fertilized eggs, and easy observation of embryonic development, making it an important model organism in aquatic ecological toxicology research.
Toxicant exposure of larvae: recording the number of the larvae at the end of the embryo hatching, transferring the larvae into glass beakers containing 200 mL of the test drug liquid with the corresponding test concentration, replacing the test drug liquids once every two days during this test stage that lasts 30 days after hatching, and feeding the zebrafish larvae with yolk in the first three days and then with fairy shrimp twice a day, wherein the larvae are firstly fed on the fourth or fifth day after spawning. The feed amount is adjusted according to the actual situation so as to be able to freely ingest and avoid excess.
During the test, if relevant test data are found to be not in the preceding scopes, then the current test is invalid, and a new test is required to be carried out again.
Observation in the test: observing the hatching rate and survival rate and recording the quantity of the larvae once a day; checking the larvae's malformation, the number of malformed larvae and abnormal behaviors once a week; removing impurities and dead larvae in beakers in a timely manner; all live larvae of the control groups and the concentration test groups are anesthetized with MS-222 for measurement of the body lengths and wet weights one by one at the end of the test, wherein the body length of each adolescent fish is measured with a vernier caliper, and the wet weight of each adolescent fish is weighed with an electronic balance. The reciprocal sensibility of the electronic balance is 0.00001 g, and the moisture on the body surface of each fish needs to be removed when the wet weight is weighed.
DPS statistical analysis software is the existing software and therefore is not described in detail here. Any other software that can implement the statistical analysis function is also available.

[2] = 20° C.; cited from earlier work

SMILES: CN/C(=N/CC1CCOC1)N[N+](=O)[O-] (centres unmarked) [dinotefuran]
- weights of the larvae versus control groups ([1]; 9.375 mg a.i./L): obviously different
- AL: Average length of live fish ([1]; 9.375 mg a.i./L, end of test): 15.86 ± 0.95 a mm
- AM: Accumulative mortality ([1]; 9.375 mg a.i./L, end of test): 26.67 a %
- NH: Number of health fish ([1]; 9.375 mg a.i./L, end of test): 44 Piece
- Average weight of Live fish ([1]; 9.375 mg/L, end of test): 16.53 ± 2.18 b mg
- weights of the larvae versus control groups ([1]; 18.75 mg a.i./L): obviously different
- AL: Average length of live fish ([1]; 18.75 mg a.i./L, end of test): 15.83 ± 0.88 a mm
- AM: Accumulative mortality (death rate of the larvae) ([1]; 18.75 mg a.i./L, end of test): 41.67% and 41.67 b %
- NH: Number of health fish ([1]; 18.75 mg a.i./L, end of test): 35 Piece
- Average weight of Live fish ([1]; 18.75 mg/L, end of test): 14.21 ± 1.68 c mg
- body lengths of the larvae versus control groups ([1]; 37.5 mg a.i./L): obviously different
- weights of the larvae versus control groups ([1]; 37.5 mg a.i./L): obviously different
- AL: Average length of live fish ([1]; 37.5 mg a.i./L, end of test): 13.52 ± 1.61 b mm
- AM: Accumulative mortality (death rate of the larvae) ([1]; 37.5 mg a.i./L, end of test): 46.67% and 46.67 b %
- NH: Number of health fish ([1]; 37.5 mg a.i./L, end of test): 32 Piece
- Average weight of Live fish ([1]; 37.5 mg/L, end of test): 13.89 ± 1.96 c mg
- body lengths of the larvae versus control groups ([1]; 75.0 mg a.i./L): obviously different
- weights of the larvae versus control groups ([1]; 75.0 mg a.i./L): obviously different
- AL: Average length of live fish ([1]; 75.0 mg a.i./L, end of test): 12.83 ± 1.53 b mm
- AM: Accumulative mortality (death rate of the larvae) ([1]; 75.0 mg a.i./L, end of test): 55.0% and 55.0 b %
- NH: Number of health fish ([1]; 75.0 mg a.i./L, end of test): 27 Piece
- Average weight of Live fish ([1]; 75.0 mg/L, end of test): 13.29 ± 2.96 c mg
- fate of all larvae at the end of the test ([1]; 150 mg a.i./L): died
- fate of all larvae at the end of the test ([1]; 300 mg a.i./L): died
- minimum observable effect concentration on the body lengths of the larvae ([1]; end of test): 37.5 mg a.i./L
- minimum observable effect concentration on the weights of the larvae ([1]; end of test): 9.375 mg a.i./L
- unobservable effect concentration on the body lengths of the larvae ([1]; end of test): 18.75 mg a.i./L
- toxic symptoms during the exposure stage ([1]; test groups): no obvious toxic symptoms were observed except malformation of several fishes before death
- solubility in methanol [2]: 57 mg/mL (≈ 282 mM)
